Series [1] concerns bEnd3 cell layers. Nature of the series: Permeability (transport study) across bEnd3 monoculture model.
Method: (§2) For the generation of mono-culture models, ECV304 or bEnd3 cells were seeded on the upper surface of the membrane in Polyester Transwell inserts (0.4 μM pore size, 6.5 mm diameter, 24 well, Costar, Kennebunk, ME, USA) at a density of 5 × 10^4 and 8 × 10^4/cm^2, respectively. […] The culture medium (0.25 ml in the apical compartment and 1 ml in the basolateral compartment to avoid hydrostatic pressure) was replenished every day.
(§3) On day 5~7 after seeding cells, the TEER across cell layers was measured before initiating the transport study by replacing the medium in the apical compartment with tested compounds dissolved in HBSS. […] At indicated time points of 15, 30, 45 and 60 min, the inserts were transferred into new wells containing fresh HBSS to maintain sink conditions. […] Other compounds were analyzed by liquid chromatography tandem mass spectrometer (LC-MS/MS).
(§4) The cleared volume was determined by dividing the compound amount in basolateral compartment by the compound concentration in apical compartment. The slope of the cumulative clearance versus time was calculated by linear regression analysis and denoted as permeability coefficient (PEall) × surface area of the membrane insert (S, 0.33 cm^2). The PEblank of blank inserts was included to calculate the PEcell for cell layers themselves using the following equation: 1/PEcellS = 1/PEallS—1/PEblankS.
Assay in series [2]: as above
Conditions: mouse.
Method: as §2, §3, §4

Series [3] deals with ECV304 cell layers. Nature of the series: Permeability (transport study) across ECV304 monoculture model.
Method: as §2, §3, §4
Assay in series [4]: as above
Particulars: human.
Method: as §2, §3, §4

The test system of series [5] is bEnd3 co-cultured with rat glioma C6 cells. In words: Permeability to Lucifer yellow in bEnd3 co-culture model with C6 cells. In kind it is in vitro ADME, mouse. Conditions: Lucifer yellow 50 μM. The procedure:
(§1) For the generation of mono-culture models, ECV304 or bEnd3 cells were seeded on the upper surface of the membrane in Polyester Transwell inserts ([…] pore size, 6.5 mm diameter, 24 well, Costar, Kennebunk, ME, USA) at a density of 5 × 10^4 and 8 × 10^4/cm^2, respectively. For the generation of co-culture models, C6 cells were seeded on the lower surface of the membrane at a density of 5 × 10^4/cm^2 and incubated for 2 h to allow cell attachment before the seeding of ECV304 or bEnd3 cells.

The test system of series [6] is ECV304 co-cultured with rat glioma C6 cells. In words: Permeability to Lucifer yellow in ECV304 co-culture model with C6 cells. In kind it is in vitro ADME, human. Particulars: Lucifer yellow 50 μM. The procedure:
as §1

Series [7] relates to ECV304 cell layers. Conditions: cited from earlier work.

Regarding `CC(C)NCC(O)COc1cccc2ccccc12` (stereo not drawn) [Propranolol, propranolol], the “permeability ratio of transcellular marker propranolol to paracellular marker Lucifer yellow” value is listed as 1.2 in series [1] (bEnd3 cells, monoculture) and 2.5 in series [3] (ECV304 cells, monoculture). For the same compound, the Papp (commonly the rate of passage across a membrane or cell layer, normalised by area and donor concentration) at 60 min in series [2] is 29.7 ± 1.44 ×10⁻⁶ cm/s; in series [4], 28.4 ± 1.25 ×10⁻⁶ cm/s.

For Lucifer yellow, the “increase of permeability to Lucifer yellow, co-culture with C6 cells versus monoculture” value turned out to be 2 fold in series [5] and 2.2 fold in series [6]. Moreover, the “permeability to Lucifer yellow” value in series [1] (bEnd3 monoculture model, Lucifer yellow 50 μM, day 5~7 after seeding, mean ± SD, n = 3) is on record as 23.68 ± 1.71 × 10^−6 cm/s; in series [3] (ECV304 monoculture model, Lucifer yellow 50 μM, day 5~7 after seeding, mean ± SD, n = 3), 11.17 ± 0.87 × 10^−6 cm/s. For the same compound, the “permeability of Lucifer yellow in ECV304 monolayer, published before” value in series [7] was 10.4 ×10⁻⁶ cm/s.

`COC(=O)c1ccccc1-c1c2ccc(=N)cc-2oc2cc(N)ccc12` [R123, Rhodamine 123]: the Papp at 60 min stood at 22.3 ± 2.8 ×10⁻⁶ cm/s in series [2] and 12.4 ± 0.91 ×10⁻⁶ cm/s in series [4].

Take `C[C@H]1O[C@@H](O[C@H]2[C@@H](O)C[C@H](O[C@H]3[C@@H](O)C[C@H](O[C@H]4CC[C@@]5(C)[C@H](CC[C@@H]6[C@@H]5C[C@@H](O)[C@]5(C)[C@@H](C7=CC(=O)OC7)CC[C@]65O)C4)O[C@@H]3C)O[C@@H]2C)C[C@H](O)[C@@H]1O` [Digoxin, digoxin]: the values for the Papp at 60 min in series [2] and in series [4] were 6.24 ± 0.27 ×10⁻⁶ cm/s and 3.29 ± 0.16 ×10⁻⁶ cm/s, respectively.

Regarding `C=C[C@H]1C[N@@]2CC[C@H]1C[C@@H]2[C@@H](O)c1ccnc2ccc(OC)cc12` [Quinidine, quinidine], the Papp at 60 min in series [2] was 26.8 ± 0.68 ×10⁻⁶ cm/s; in series [4], 24.5 ± 1.61 ×10⁻⁶ cm/s.

Source of the values: PMC5653355, “Identification of two immortalized cell lines, ECV304 and bEnd3, for in vitro permeability studies of blood-brain barrier” (PLoS ONE, 2017).
